Legend:
Capan-1 GR = assay: Effect of gemcitabine on gemcitabine-resistant cell lines (RTCA); assay type: cell-based, human; details: 1.6 uM and 3.2 uM; without medium change or with medium change at 1 h or 3 h; compared to parental cell line
Text: (§1) Gemcitabine-based therapy is currently the standard first-line therapy for patients with advanced PDAC. However, tumor recurrence after gemcitabine treatment may lead to short patient survival (Jia Y, Gu D, Wan J, et al. The role of GLI-SOX2 signaling axis for gemcitabine resistance in pancreatic cancer. Oncogene 2019; 38 (10): 1764-77. doi: 10.1038/s41388-018-0553-0 [published Online First: 2018 Oct. 31]). Therefore, it is critical to verify whether […] cells are effective in killing gemcitabine-resistant tumors in vitro and in vivo. In this case, we established two gemcitabine-resistant (GR) cell lines (Capan-1 GR and MIA Paca-2 GR) by exposing parental Capan-1 and MIA Paca-2 cells to increasing concentrations of gemcitabine for 9 months. […] Compared to the parental cell lines, Capan-1 GR and MIA Paca-2 GR were not killed by gemcitabine at concentrations of 1.6 uM and 3.2 uM, either without medium change or with medium change at 1 h or 3 h (FIG. 6B, FIGS. 10 and 11). We explored the anti-PC effect of […] cells targeting Capan-1 GR and MIA Paca-2 GR cells in vitro. […] We also measured the levels of CD25, CD69, CD107a, TNF-α, and IFN-γ expression of […] cells after co-incubation with GR cells and the parental cells. […] Next, we evaluated the therapeutic effect of […] cells against Capan-1 GR cells in vivo. The parental Capan-1 cells were injected as control.

MIA Paca-2 GR = assay: as above; assay type: cell-based, human; details: 1.6 uM and 3.2 uM; without medium change or with medium change at 1 h or 3 h; compared to parental cell line
Text: as §1

SMILES: Nc1ccn([C@@H]2O[C@H](CO)[C@@H](O)C2(F)F)c(=O)n1 [gemcitabine, 2′,2′-difluorodeoxycytidine]
- killing by gemcitabine (RTCA) (Capan-1 GR): not killed
- killing by gemcitabine (RTCA) (MIA Paca-2 GR): not killed
